Test results from patent publication US20040096899A1, “Immunoassay method for membrane-bound matrix metalloprotease” (priority 2000, published 2004).
Blank lines part the entries; values can stand above or below the substance they belong to.

How the values were obtained:
[1] = biological target: T1, MT1-MMP sandwich EIA (solid-phase antibody 222-2D12, labeled antibody 222-1D8) (Homo sapiens, UniProt P50281); assay: Specificity test: cross reactivity on MT1-MMP sandwich EIA; type: binding; details: concentration 1 μg/mL; blank 0.027
T1 construct: 488 amino acid residues of Δ MT1-MMP (G^48 to G^53) which lacks the signal peptide and part of the propeptide region; made in house; host or cells: E. coli
Protocol: Monoclonal antibodies (e.g., 333-2D12 (IgG)) were dissolved in 0.1 M phosphate buffer, pH 7.0 to a concentration of 25 μg/mL. The monoclonal antibody solution was added to each well of a 96-well microwell (Maxisorp; Nunc-Immuno Module) at 100 μL per well and allowed to stand at 4° C. for 24 hrs. […] The solid-phase antibodies were preserved at 4° C.
Standard antigens or samples to be assayed were dispensed into a 96-well vinyl plate at 25 μL each. To each well was added a dilution buffer in aliquots of 100 μL, followed by mixing. An aliquot (100 μL) of the resultant mixture was taken out, dispensed into an antibody-solid phased plate from which a blocking solution was removed by washing. The plate was then allowed to stand at 4° C. for 16 hours.
[…] antibody 222-1D8 (Fab′-HRP) was diluted with a blocking solution to a concentration of 0.4 μg/mL. The reaction solution was removed from the antibody-solid phased plate where the primary reaction was completed. The plate was washed with a washing liquid three times and an aliquot (100 μL) of the labeled antibody solution was added to each well. The plate was allowed to stand at room temperature for 1 hour.
After completion of the reaction, the labeled antibody solution was removed. The plate was then washed with a washing liquid three times, and a TMB solution (CALBIOCHEM) was added to each well at 100 μL. The mixture was allowed to react at room temperature for 20 minute. The reaction was stopped with the addition of 2 N sulfuric acid at 100 μL per well. The reaction mixture was measured for A450 with a microplate reader (MPR-A4; Tosoh).
Each of MMP-1, -2, -3, -4, -7, -8, -9, -13, -19 and -20 was prepared to give a concentration of 1 μg/mL, and subjected to MT1-MMP sandwich EIA. A450 was measured. When MT1-MMP was subjected to sandwich EIA at 0.16 μg/mL, the absorbance was 2.206. However, when the above MMPs were subjected, their absorbances were only an extent of 0.024 to 0.071. Accordingly, it has been verified that MT1-MMP sandwich EIA is specifically reactive with MT1-MMP.

[2] = system: CaSki (cervical epidermoid cancer); assay: MT1-MMP sandwich EIA of cultured cell line with Con A; type: cell-based, Human; details: Con A-containing serum-free medium 48 hours
Protocol: (§1) Searches for Human MT1-MMP-producing culture cell lines were carried out by means of MT1-MMP sandwich EIA. With regard to the cell lines, there were used Burkitt's lymphoma (Daudi, Namalwa, Raji), acute lymphoblastic leukemia (T-cells) (MOLT-4), chronic myelogenous leukemia (K-562), promyelocytic leukemia (HL-60), fibrosarcoma (HT-1080), breast cancer (MDA-MB-231, SK-BR-3, MCF 7), lung cancer (A 549), rectal adenocarcinoma (SW 837), osteosarcoma ([…]), lingual squamous cell carcinoma (SSC-25), uterocervical cancer (HeLa), cervical epidermoid cancer (CaSki), prostatic cancer (PC-3) and malignant melanoma (A-375) cells. Each of the cancer cell lines was incubated in a plate of 10 cm diameter until being confluent, the medium was exchanged with serum-free medium or Con A-containing serum-free medium and, after 48 hours, the culture supernatant and the cells were recovered. The cells were ultrasonically disrupted in 0.5 mL of dilution buffer and centrifuged. The resulting supernatant was subjected to EIA as a cell extract fraction. The culture supernatant was subjected to EIA as it was.

HT-1080 (fibrosarcoma) = assay: as above; type: cell-based, Human; details: HT-1080, Con A-containing serum-free medium 48 hours
Protocol: as §1

[3] = system: MDA-MB-231 (breast cancer); assay: as above; type: cell-based, Human; details: MDA-MB-231, Con A-containing serum-free medium 48 hours
Protocol: as §1

MG-63 (osteosarcoma) = assay: as above; type: cell-based, Human; details: MG-63, Con A-containing serum-free medium 48 hours
Protocol: as §1

[4] = system: SSC-25 (lingual squamous cell carcinoma); assay: as above; type: cell-based, Human; details: SSC-25, Con A-containing serum-free medium 48 hours
Protocol: as §1

[5] = system: SW 837 (rectal adenocarcinoma); assay: as above; type: cell-based, Human; details: SW 837, Con A-containing serum-free medium 48 hours
Protocol: as §1

A450 [1]: 0.027
Substance: MMP-3: matrix metalloproteinase subjected to MT1-MMP sandwich EIA for cross reactivity

A450 [1]: 0.026
Substance: MMP-7: matrix metalloproteinase subjected to MT1-MMP sandwich EIA for cross reactivity

A450 [1]: 0.028
Substance: MMP-8: matrix metalloproteinase subjected to MT1-MMP sandwich EIA for cross reactivity

Substance: concanavalin A [Con A]
MT1-MMP in Culture Supernatant, +Con A ([2]; −Con A 1.7): 25.1 | MT1-MMP in Cell Extract Fraction, +Con A ([2]; −Con A 9.0): 9.5 | MT1-MMP in Culture Supernatant, +Con A (HT-1080 (fibrosarcoma); −Con A 10.1): 80.3 | MT1-MMP in Cell Extract Fraction, +Con A (HT-1080 (fibrosarcoma); −Con A 45.9): 42.6 | MT1-MMP in Culture Supernatant, +Con A ([3]; −Con A 7.6): 48.8 | MT1-MMP in Cell Extract Fraction, +Con A ([3]; −Con A 42.8): 85.0 | MT1-MMP in Cell Extract Fraction, +Con A (MG-63 (osteosarcoma); −Con A 0.7): 0.0 | MT1-MMP in Culture Supernatant, +Con A (MG-63 (osteosarcoma); −Con A 1.6): 20.3 | MT1-MMP in Culture Supernatant, +Con A ([4]; −Con A 2.8): 43.1 | MT1-MMP in Cell Extract Fraction, +Con A ([4]; −Con A 5.9): 19.1 | MT1-MMP in Culture Supernatant, +Con A ([5]; −Con A 1.8): 14.2 | MT1-MMP in Cell Extract Fraction, +Con A ([5]; −Con A 21.5): 30.7
